Experimental data from US4352792A, “3-Alkoxyflavone antiviral agents” (priority 1979, dated 1982).
Values after ≈ are worked out from the molar mass of the structure shown. Read-outs that look alike come from different tables or passages of the source.

Key:
rhinovirus HGP = test: Inhibition of viral cytopathogenic effect in HeLa cells (rhinovirus HGP); assay type: cell-based; details: Enterovirus, 48 h, read-out: IC50 rhinovirus HGP
Coxsackie virus B1 [1] = test system: Coxsackie virus B1
Coxsackie virus B1 [2] = test: Inhibition of viral cytopathogenic effect in HeLa cells (Coxsackie virus B1); assay type: cell-based; details: for IC50: 24 h, read-out: IC50 Coxsackie virus B1
acute toxicity in mice = details: mouse, in vivo, day 21
Coxsackie virus B1 [3] = test: Anti-Coxsackie virus activity, lethal infection in mice
influenzavirus A2/Adachi = test: Anti-influenzavirus activity in mice; details: up to 21 days; for Survivals: survivors/total
rhinovirus type 34 = test: in vitro antiviral spectrum; assay type: cell-based; details: Enterovirus, read-out: Minimum inhibitory concentration
rhinovirus type 17 = test: in vitro antiviral spectrum; assay type: cell-based; details: Enterovirus, read-out: Minimum inhibitory concentration
rhinovirus type 55 = test: in vitro antiviral spectrum; assay type: cell-based; details: Enterovirus, read-out: Minimum inhibitory concentration
rhinovirus type 9 = test: in vitro antiviral spectrum; assay type: cell-based; details: Enterovirus, read-out: Minimum inhibitory concentration
rhinovirus type 32 = test: in vitro antiviral spectrum; assay type: cell-based; details: Enterovirus, read-out: Minimum inhibitory concentration
rhinovirus type 21 = test: in vitro antiviral spectrum; assay type: cell-based; details: Enterovirus, read-out: Minimum inhibitory concentration
rhinovirus type 30 = test: in vitro antiviral spectrum; assay type: cell-based; details: Enterovirus, read-out: Minimum inhibitory concentration
rhinovirus type 2 = test: in vitro antiviral spectrum; assay type: cell-based; details: Enterovirus, read-out: Minimum inhibitory concentration
rhinovirus type 44 = test: in vitro antiviral spectrum; assay type: cell-based; details: Enterovirus, read-out: Minimum inhibitory concentration
rhinovirus type 26 = test: in vitro antiviral spectrum; assay type: cell-based; details: Enterovirus, read-out: Minimum inhibitory concentration
rhinovirus type 4 = test: in vitro antiviral spectrum; assay type: cell-based; details: Enterovirus, read-out: Minimum inhibitory concentration
rhinovirus type 53 = test: in vitro antiviral spectrum; assay type: cell-based; details: Enterovirus, read-out: Minimum inhibitory concentration
rhinovirus type 39 = test: in vitro antiviral spectrum; assay type: cell-based; details: Enterovirus, read-out: Minimum inhibitory concentration
rhinovirus type 14 = test: in vitro antiviral spectrum; assay type: cell-based; details: Enterovirus, read-out: Minimum inhibitory concentration
rhinovirus type 16 = test: in vitro antiviral spectrum; assay type: cell-based; details: Enterovirus, read-out: Minimum inhibitory concentration
rhinovirus type 1A = test: in vitro antiviral spectrum; assay type: cell-based; details: Enterovirus, read-out: Minimum inhibitory concentration
rhinovirus type 3 = test: in vitro antiviral spectrum; assay type: cell-based; details: Enterovirus, read-out: Minimum inhibitory concentration
rhinovirus type 47 = test: in vitro antiviral spectrum; assay type: cell-based; details: Enterovirus, read-out: Minimum inhibitory concentration
rhinovirus type 50 = test: in vitro antiviral spectrum; assay type: cell-based; details: Enterovirus, read-out: Minimum inhibitory concentration
rhinovirus type 36 = test: in vitro antiviral spectrum; assay type: cell-based; details: Enterovirus, read-out: Minimum inhibitory concentration
rhinovirus type 13 = test: in vitro antiviral spectrum; assay type: cell-based; details: Enterovirus, read-out: Minimum inhibitory concentration
[4] = 50% inhibition of viral c.p.e., HeLa cells, 2 days at 33° C.
[5] = ip, single dose i.p., dissolved in dimethyl sulfoxide, read-out: LD50 i.p.
[6] = po, single dose p.o., suspended in 0.5% carboxymethylcellulose, read-out: LD50 p.o.
[7] = Mus musculus, ip, 504 h, read-out: Survival
[8] = Mus musculus, po, 504 h, read-out: Survival
[9] = 50% inhibition of viral c.p.e., HeLa cells, 1 day at 37° C.
[10] = Mus musculus, iv, 504 h, read-out: Survival

SMILES: COc1cc(OC(C)=O)c2c(=O)c(OC)c(-c3ccc(OC(C)=O)c(OC)c3)oc2c1
- IC50 (rhinovirus HGP; [4]): 0.1 to 0.2 µg/mL (≈ 0.233 to 0.467 µM)
- Survivors/total (Coxsackie virus B1 [1]; 10 mg/kg × 9 orally, infection 2.5x LD50, day 21): 2/7
- Survivors/total (Coxsackie virus B1 [1]; 10 mg/kg × 9 orally, infection 10x LD50, day 21): 1/7
- Survivors/total (Coxsackie virus B1 [1]; 10 mg/kg × 9 orally, infection 40x LD50, day 21): 0/7
- Survivors/total (Coxsackie virus B1 [1]; 10 mg/kg × 9 orally, infection 160x LD50, day 21): 0/7
- Survivors/total (Coxsackie virus B1 [1]; 20 mg/kg × 9 orally, infection 2.5x LD50, day 21): 3/7
- Survivors/total (Coxsackie virus B1 [1]; 20 mg/kg × 9 orally, infection 10x LD50, day 21): 2/7
- Survivors/total (Coxsackie virus B1 [1]; 20 mg/kg × 9 orally, infection 40x LD50, day 21): 1/7
- Survivors/total (Coxsackie virus B1 [1]; 20 mg/kg × 9 orally, infection 160x LD50, day 21): 1/7
- Survivors/total (Coxsackie virus B1 [1]; 40 mg/kg × 9 orally, infection 2.5x LD50, day 21): 4/7
- Survivors/total (Coxsackie virus B1 [1]; 40 mg/kg × 9 orally, infection 10x LD50, day 21): 3/7
- Survivors/total (Coxsackie virus B1 [1]; 40 mg/kg × 9 orally, infection 40x LD50, day 21): 2/7
- Survivors/total (Coxsackie virus B1 [1]; 40 mg/kg × 9 orally, infection 160x LD50, day 21): 2/7
- IC50 (Coxsackie virus B1 [2]; HeLa): 0.1 to 0.2 µg/mL (≈ 0.233 to 0.467 µM)
- LD50 at 504 h (acute toxicity in mice; [5]): > 1000 mg/kg
- LD50 at 504 h (acute toxicity in mice; [6]): > 5000 mg/kg
- Survival (Coxsackie virus B1 [3]; 40 mg/kg × 9, p.o., up to 21 days): 50%
- responders at 10 mg/kg (Coxsackie virus B1 [3]; [7]): 54%
- responders at 20 mg/kg (Coxsackie virus B1 [3]; [7]): 67%
- responders at 20 mg/kg (Coxsackie virus B1 [3]; [8]): 20%
- responders at 40 mg/kg (Coxsackie virus B1 [3]; [8]): 50%
- responders at 80 mg/kg (Coxsackie virus B1 [3]; [8]): 60%
- Survivals (influenzavirus A2/Adachi; 20 mg/kg × 9, i.p.): 2/7
- Survivals (%) (influenzavirus A2/Adachi; 20 mg/kg × 9, i.p.): 29%
- Survivals (influenzavirus A2/Adachi; 40 mg/kg × 9, i.p.): 3/8
- Survivals (%) (influenzavirus A2/Adachi; 40 mg/kg × 9, i.p.): 38%

SMILES: COc1cc(O)c2c(=O)c(OC)c(-c3ccc(OC)c(O)c3)oc2c1 [3',5-dihydroxy-3,4',7-trimethoxyflavone]
- IC50 (rhinovirus HGP; [4]): 3 µg/mL (≈ 8.71 µM)
- IC50 (Coxsackie virus B1 [2]; [9]): 3 to 10 µg/mL (≈ 8.71 to 29 µM)

SMILES: COc1cc(OC(=O)c2cccnc2)c2c(=O)c(OC)c(-c3ccc(OC(=O)c4cccnc4)c(OC)c3)oc2c1 [3,3',7-trimethoxy-4',5-bis-(nicotinoyloxy)-flavone]
- IC50 (rhinovirus HGP; [4]): 0.3 to 1 µg/mL (≈ 0.541 to 1.8 µM)
- IC50 (Coxsackie virus B1 [2]; [9]): 0.3 to 1 µg/mL (≈ 0.541 to 1.8 µM)
- responders at 10 mg/kg (Coxsackie virus B1 [3]; [8]): 40%
- responders at 20 mg/kg (Coxsackie virus B1 [3]; [8]): 30%

SMILES: CCC(=O)Oc1ccc(-c2oc3cc(OC)cc(OC(=O)CC)c3c(=O)c2OC)cc1OC [3,3',7-trimethoxy-4',5-bis-(propionyloxy)-flavone]
- IC50 (rhinovirus HGP; [4]): 0.1 to 0.2 µg/mL (≈ 0.219 to 0.438 µM)
- IC50 (Coxsackie virus B1 [2]; [9]): 0.1 to 1.2 µg/mL (≈ 0.219 to 2.63 µM)

SMILES: CCOc1c(-c2ccc(O)c(OC)c2)oc2cc(OC)cc(O)c2c1=O [3-ethoxy-4',5-dihydroxy-3',7-dimethoxyflavone]
- IC50 (rhinovirus HGP; [4]): 0.05 to 0.1 µg/mL (≈ 0.14 to 0.279 µM)
- IC50 (Coxsackie virus B1 [2]; [9]): 0.05 to 0.1 µg/mL (≈ 0.14 to 0.279 µM)

SMILES: CCOC(=O)Oc1ccc(-c2oc3cc(OC)cc(OC(=O)OCC)c3c(=O)c2OC)cc1OC [4',5-bis-(ethoxycarbonyloxy)-3,3',7-trimethoxyflavone]
- IC50 (rhinovirus HGP; [4]): 0.3 to 1 µg/mL (≈ 0.614 to 2.05 µM)
- IC50 (Coxsackie virus B1 [2]; [9]): 0.3 to 1 µg/mL (≈ 0.614 to 2.05 µM)
- responders at 10 mg/kg (Coxsackie virus B1 [3]; [8]): 30%
- responders at 20 mg/kg (Coxsackie virus B1 [3]; [8]): 30%

SMILES: COc1cc(O)c2c(=O)c(OC)c(-c3ccc(O)cc3OC)oc2c1 [4',5-dihydroxy-2,',3,7-trimethoxyflavone, 4',5-dihydroxy-2',3,7-trimethoxyflavone]
- IC50 (rhinovirus HGP; [4]): 0.3 µg/mL (≈ 0.871 µM)
- IC50 (Coxsackie virus B1 [2]; [9]): 1 to 3 µg/mL (≈ 2.9 to 8.71 µM)

SMILES: COc1cc(O)c2c(=O)c(OC)c(-c3ccc(O)cc3)oc2c1 [4',5-dihydroxy-3,7-dimethoxyflavone]
- MIC (rhinovirus type 34): 0.3 µg/mL (≈ 0.955 µM)
- MIC (rhinovirus type 17): 0.1 µg/mL (≈ 0.318 µM)
- MIC (rhinovirus type 55): 0.1 to 0.3 µg/mL (≈ 0.318 to 0.955 µM)
- MIC (rhinovirus type 9): 0.3 µg/mL (≈ 0.955 µM)
- MIC (rhinovirus type 32): 0.3 µg/mL (≈ 0.955 µM)
- MIC (rhinovirus type 21): 0.3 µg/mL (≈ 0.955 µM)
- MIC (rhinovirus type 30): 0.1 µg/mL (≈ 0.318 µM)
- MIC (rhinovirus type 2): 0.1 µg/mL (≈ 0.318 µM)
- MIC (rhinovirus type 44): 0.5 µg/mL (≈ 1.59 µM)
- MIC (rhinovirus type 26): 0.3 µg/mL (≈ 0.955 µM)
- MIC (rhinovirus type 4): 0.3 to 1 µg/mL (≈ 0.955 to 3.18 µM)
- IC50 (rhinovirus HGP; HeLa): 0.1 µg/mL (≈ 0.318 µM)
- MIC (rhinovirus type 53): 0.3 µg/mL (≈ 0.955 µM)
- MIC (rhinovirus type 39): 0.3 µg/mL (≈ 0.955 µM)
- MIC (rhinovirus type 14): 0.3 µg/mL (≈ 0.955 µM)
- MIC (rhinovirus type 16): 0.3 to 1 µg/mL (≈ 0.955 to 3.18 µM)
- MIC (rhinovirus type 1A): 0.03 µg/mL (≈ 0.0955 µM)
- MIC (rhinovirus type 3): 0.3 µg/mL (≈ 0.955 µM)
- MIC (rhinovirus type 47): 0.3 µg/mL (≈ 0.955 µM)
- IC50 (Coxsackie virus B1 [2]; HeLa): 0.1 µg/mL (≈ 0.318 µM)
- MIC (Coxsackie virus B1 [2]; read-out: Minimum inhibitory concentration): 0.1 µg/mL (≈ 0.318 µM)
- MIC (rhinovirus type 50): 0.3 µg/mL (≈ 0.955 µM)
- MIC (rhinovirus type 36): 0.3 µg/mL (≈ 0.955 µM)
- MIC (rhinovirus type 13): 0.3 to 1 µg/mL (≈ 0.955 to 3.18 µM)

SMILES: COc1cc(O)c2c(=O)c(OC(C)C)c(-c3ccc(O)c(OC)c3)oc2c1 [4',5-dihydroxy-3-isopropoxy-3',7-dimethoxyflavone]
- IC50 (rhinovirus HGP; [4]): 0.05 to 0.1 µg/mL (≈ 0.134 to 0.269 µM)
- IC50 (Coxsackie virus B1 [2]; [9]): 0.05 to 0.1 µg/mL (≈ 0.134 to 0.269 µM)

SMILES: COc1cc(O)c2c(=O)c(OC)c(-c3ccc(OC(=O)C(O)C(O)C(=O)O)c(OC)c3)oc2c1 (centres unmarked) [4'-(3-carboxy-2,3-dihydroxypropionyloxy)-5-hydroxy-3,3',7-trimethoxyflavone]
- IC50 (rhinovirus HGP; [4]): 0.1 to 0.2 µg/mL (≈ 0.21 to 0.42 µM)
- IC50 (Coxsackie virus B1 [2]; [9]): 0.1 to 0.2 µg/mL (≈ 0.21 to 0.42 µM)

SMILES: COc1cc(O)c2c(=O)c(OC)c(-c3ccc(OC(=O)[C@H](C)N)c(OC)c3)oc2c1 [4'-(L-alanyloxy)-5-hydroxy-3,3',7-trimethoxyflavone]
- IC50 (rhinovirus HGP; [4]): 0.5 µg/mL (≈ 1.2 µM)
- IC50 (Coxsackie virus B1 [2]; HeLa): 0.25 to 0.5 µg/mL (≈ 0.602 to 1.2 µM)
- LD50 at 504 h (acute toxicity in mice; [5]): > 1000 mg/kg
- LD50 at 504 h (acute toxicity in mice; [6]): > 5000 mg/kg
- responders at 10 mg/kg (Coxsackie virus B1 [3]; [10]): 42%

SMILES: COc1cc(O)c2c(=O)c(OC)c(-c3ccc(OC(=O)[C@@H](N)CCC(N)=O)c(OC)c3)oc2c1 [4'-(L-glutaminyloxy)-5-hydroxy-3,3',7-trimethoxyflavone]
- IC50 (rhinovirus HGP; [4]): 0.25 to 0.5 µg/mL (≈ 0.529 to 1.06 µM)
- IC50 (Coxsackie virus B1 [2]; HeLa): 0.25 to 0.5 µg/mL (≈ 0.529 to 1.06 µM)
- LD50 at 504 h (acute toxicity in mice; [5]): > 1000 mg/kg
- LD50 at 504 h (acute toxicity in mice; [6]): > 5000 mg/kg
- responders at 10 mg/kg (Coxsackie virus B1 [3]; [10]): 54%
